Patent publication US20250026787A1, “PEPTIDES AND METHODS FOR REDUCING SKIN PIGMENTATION” (Glo Pharma, Inc., priority 2021, published 2025)
Read-outs that look alike come from different tables or passages of the source. Square brackets hold non-standard residues; d marks the D form. Peptide text beside a SMILES is read from it.

Biological target: T1, Human recombinant melanocortin MCI receptors (Homo sapiens, UniProt Q01726)
T1 construct: purchased Eurofins Discovery Item 251100; host or cells: CHO-K1
Experiment: MC1 Human Melanocortin GPCR Binding (Agonist Radioligand) competition assay (Eurofins Item 251100)
Experimental: The binding of Group A MCIR peptide antagonists of the disclosure was evaluated in a competition assay (MC1 Human Melanocortin GPCR Binding (Agonist Radioligand) Assay, Item 251100, Eurofins Discovery). […] Human recombinant melanocortin MCI receptors were expressed in CHO-K1 cells in modified HEPES-KOH buffer pH 7.0. […] Non-specific binding was estimated in the presence of 1 μM NDP-α-MSH. Receptors were filtered and washed, and the filters counted to determine [^125I] NDP-α-MSH specifically bound. Peptide antagonists of the disclosure having amino acid sequences as set forth in SEQ ID NOS: 11, 16, 25, 27, 32, 35, and 40 (each having a C-terminal —NH2) were screened at five concentrations, as well as a positive control, SEQ ID NO: 1 (Melanostatine-5). Inhibition curves were obtained by determining the reduction of bound α-MSH in the presence of an amount of, and/or by increasing amounts of, each peptide antagonist. Non-specific binding of peptide was estimated separately in the presence of a vast excess (1 mM) of unlabeled α-MSH, which occupies all the available receptor binding sites. Based on the competitive binding curve, the IC50 values were determined (Eurofins or AAT Bioquest IC50 calculator). […] The binding of Group A MCIR peptide antagonists of the disclosure was evaluated in a competition assay (MC1 Human Melanocortin GPCR Binding (Agonist Radioligand) Assay, Item 251100, Eurofins Discovery). […] Human recombinant melanocortin MCI receptors were expressed in CHO-K1 cells in modified HEPES-KOH buffer pH 7.0. […] Non-specific binding was estimated in the presence of 1 μM NDP-α-MSH. Receptors were filtered and washed, and the filters counted to determine [^125I]NDP-α-MSH specifically bound. Peptide antagonists of the disclosure having amino acid sequences as set forth in SEQ ID NOS: 11, 16, 25, 27, 32, 35, and 40 were screened at five concentrations. Inhibition curves were obtained by determining the reduction of bound α-MSH in the presence of an amount of, and/or by increasing amounts of, each peptide antagonist. […] Based on the percent inhibition relative to the agonist the IC50 values were determined (Eurofins or AAT Bioquest IC50 calculator).

[1] = Example 7, Table 7, binned, screened at five concentrations, read-out: IC50
[2] = stated as 'in some embodiments', broadest range, read-out: IC50 value using a competition assay

T1 sequence (Q01726 whole entry): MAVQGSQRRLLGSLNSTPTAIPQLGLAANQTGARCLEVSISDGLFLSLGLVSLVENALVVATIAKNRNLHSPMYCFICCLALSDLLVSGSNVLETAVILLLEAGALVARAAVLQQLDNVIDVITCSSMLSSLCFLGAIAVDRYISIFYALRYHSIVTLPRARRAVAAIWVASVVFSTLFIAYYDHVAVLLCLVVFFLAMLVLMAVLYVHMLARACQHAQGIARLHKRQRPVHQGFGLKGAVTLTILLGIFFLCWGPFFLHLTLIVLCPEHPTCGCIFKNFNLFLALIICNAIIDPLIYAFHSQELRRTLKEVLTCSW

IC50 [1] [µM]	Compound	other results
0.2 to 0.5	CC(C)[C@H](NC(=O)[C@@H]1CCCN1C(=O)[C@H](CCCCN)NC(=O)[C@H](Cc1ccccc1)NC(=O)[C@@H](Cc1c[nH]c2ccccc12)NC(=O)[C@H](CCCNC(=N)N)NC(=O)[C@@H](Cc1ccccc1)NC(=O)[C@@H](NC(=O)[C@H](C)N)C(C)C)C(N)=O [SEQ ID NO: 11, Ala-Val-dPhe-Arg-dTrp-Phe-Lys-Pro-Val-NH2] (H-AV[dF]R[dW]FKPV-NH2)	
> 0.5	CSCC[C@H](N)C(=O)N[C@H](C(=O)N[C@@H](Cc1ccccc1)C(=O)N[C@@H](CCCNC(=N)N)C(=O)N[C@H](Cc1c[nH]c2ccccc12)C(=O)N[C@@H](Cc1ccccc1)C(=O)N[C@@H](CCCCN)C(=O)N1CCC[C@H]1C(=O)N[C@H](C(N)=O)C(C)C)C(C)C [SEQ ID NO: 27, Met-Val-Phe-Arg-dTrp-Phe-Lys-Pro-Val-NH2] (H-MVFR[dW]FKPV-NH2)	
> 0.5	CSCC[C@H](N)C(=O)N[C@H](C(=O)N[C@H](Cc1ccccc1)C(=O)N[C@H](CCCNC(=N)N)C(=O)N[C@H](Cc1c[nH]c2ccccc12)C(=O)N[C@@H](Cc1ccccc1)C(=O)N[C@@H](CCCCN)C(=O)N1CCC[C@H]1C(=O)N[C@H](C(N)=O)C(C)C)C(C)C [SEQ ID NO: 35, Met-Val-dPhe-dArg-dTrp-Phe-Lys-Pro-Val-NH2] (H-MV[dF][dR][dW]FKPV-NH2)	
> 0.5	CC(C)[C@H](NC(=O)[C@@H]1CCCN1C(=O)[C@H](CCCCN)NC(=O)[C@H](Cc1ccccc1)NC(=O)[C@@H](Cc1c[nH]c2ccccc12)NC(=O)[C@H](CCCNC(=N)N)NC(=O)[C@@H](Cc1ccccc1)NC(=O)[C@@H](NC(=O)[C@@H](N)CCC(=O)O)C(C)C)C(N)=O [SEQ ID NO: 25, Glu-Val-dPhe-Arg-dTrp-Phe-Lys-Pro-Val-NH2] (H-EV[dF]R[dW]FKPV-NH2)	
< 0.2	CC(C)[C@H](NC(=O)[C@@H]1CCCN1C(=O)[C@H](CCCCN)NC(=O)[C@H](Cc1ccccc1)NC(=O)[C@@H](Cc1c[nH]c2ccccc12)NC(=O)[C@H](CCCNC(=N)N)NC(=O)[C@@H](Cc1ccccc1)NC(=O)[C@@H](NC(=O)[C@@H](N)Cc1ccccc1)C(C)C)C(N)=O [SEQ ID NO: 16, Phe-Val-dPhe-Arg-dTrp-Phe-Lys-Pro-Val-NH2] (H-FV[dF]R[dW]FKPV-NH2)	IC50 [2]: 0.07 to 0.16 µM
< 0.2	CC[C@H](C)[C@H](N)C(=O)N[C@@H](Cc1ccccc1)C(=O)N[C@@H](CCCNC(=N)N)C(=O)N[C@H](Cc1c[nH]c2ccccc12)C(=O)N[C@@H](Cc1ccccc1)C(=O)N[C@@H](CCCCN)C(=O)N1CCC[C@H]1C(=O)N[C@H](C(N)=O)C(C)C [SEQ ID NO: 32, Ile-Phe-Arg-dTrp-Phe-Lys-Pro-Val-NH2] (H-IFR[dW]FKPV-NH2)	IC50 [2]: 0.07 to 0.16 µM
> 0.5	CC(C)C[C@@H](NC(=O)[C@H](C)N)C(=O)N[C@H](Cc1ccccc1)C(=O)N[C@@H](CCCNC(=N)N)C(=O)N[C@H](Cc1c[nH]c2ccccc12)C(=O)N[C@@H](Cc1ccccc1)C(=O)N[C@@H](CCCCN)C(=O)N1CCC[C@H]1C(=O)N[C@H](C(N)=O)C(C)C [SEQ ID NO: 40, Ala-dLeu-dPhe-Arg-dTrp-Phe-Lys-Pro-Val-NH2] (H-A[dL][dF]R[dW]FKPV-NH2)	
	CSCC[C@H](N)C(=O)N1CCC[C@H]1C(=O)N[C@H](Cc1ccccc1)C(=O)N[C@@H](CCCNC(=N)N)C(=O)N[C@H](Cc1c[nH]c2ccccc12)C(=O)N[C@@H](Cc1ccccc1)C(=O)N[C@@H](CCCCN)C(=O)N1CCC[C@H]1C(=O)N[C@H](C(N)=O)C(C)C [SEQ ID NO: 1, Met-Pro-D-Phe-Arg-D-Trp-Phe-Lys-Pro-Val, reference compound] (H-MP[dF]R[dW]FKPV-NH2)	IC50 (IC50, Example 7, Table 7, binned, screened at five concentrations): < 0.2 µM; IC50 (IC50 value, Example 1, competition with 0.04 nM [125I]NDP-α-MSH, 120 minutes at 37° C): 0.12 µM
